In patent US8853207B2 (Development Center for Biotechnology, priority 2012, dated 2014):
Structures can show the parent of a compound that is named as a salt.

What follows are compounds tested against FLT3 kinase (FLT3 kinase domain alone, Upstate) (Homo sapiens (Human), UniProt P36888) (assay: FLT3 kinase assay ([33P] incorporation into substrate)). Conditions: 100 μM ATP, 30° C., 30 minutes; read-out: IC50 against FLT3.
Type: biochemical
Method: Inhibition of FLT3 kinase activity by compounds disclosed herein was quantified by measuring the amount of [^33P] incorporated into the substrate in the presence of a test compound. Briefly, a reaction mixture of 25 μL final volume containing 5 ng of FLT3 kinase (FLT3 kinase domain alone, Upstate), 5 μg of the substrate [(Poly (Glu-Tyr, 4:1), Sigma], kinase reaction buffer (20 mM MOPS pH 7.0, 1 mM EDTA, 5% glycerol, 0.01% Brij-35, 0.1% β-mercaptoethanol, 1 mg/mL BSA, 100 μM ATP, 0.1 μCi per well [^33P]-γ-ATP (2,500-3,000 Ci/mmol)), and a test compound (diluted from 9 μM to the desired final concentration by 4% DMSO) or DMSO (as the control) was incubated at 30° C. for 30 minutes. The reaction was stopped by adding 5 μL of 3% phosphoric acid solution. The resultant solution (30 μL) was later harvested by a UniFilter Plate GF/B (PerkinElmer) followed by adding 30 μL of the scintillation cocktail (MicroScint 20, PerkinElmer) to the well. The radioactivity retained on the filter membrane was measured by a luminescence counter (PerkinElmer). The results were analyzed by using linear regression software (GraphPad Prism 4; GraphPad Software Inc.).

Sequence of FLT3 kinase (FLT3 kinase domain alone, Upstate) (P36888 610-943): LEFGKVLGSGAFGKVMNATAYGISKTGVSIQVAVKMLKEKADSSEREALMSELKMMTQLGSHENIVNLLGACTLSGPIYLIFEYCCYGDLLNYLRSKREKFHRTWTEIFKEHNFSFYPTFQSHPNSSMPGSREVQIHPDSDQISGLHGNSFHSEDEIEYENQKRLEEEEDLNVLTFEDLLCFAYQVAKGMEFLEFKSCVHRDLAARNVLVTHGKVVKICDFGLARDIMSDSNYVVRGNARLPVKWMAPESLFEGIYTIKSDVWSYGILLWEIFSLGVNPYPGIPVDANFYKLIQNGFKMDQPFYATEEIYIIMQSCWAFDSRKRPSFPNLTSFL

IC50 [nM]	Compound
< 100	CN1CCN(c2ccc(-c3n[nH]c4c3Cc3sc(-c5ccc(N)nc5)cc3-4)cc2)CC1 [Example-89, 5-{6-[4-(4-Methyl-piperazin-1-yl)-phenyl]-4,7-dihydro-1-thia-4,5-diaza-cyclopenta[a]pentalen-2-yl}-pyridin-2-ylamine hydrochloride]
100 to 499	COc1ccc(Nc2ccc(-c3n[nH]c4c3Cc3sccc3-4)cc2)cc1 [Example-8, [4-(4,7-Dihydro-1-thia-4,5-diaza-cyclopenta[a]pentalen-6-yl)-phenyl]-(4-methoxy-phenyl)-amine]
500 to 1000	c1cc(-c2n[nH]c3c2Cc2sccc2-3)co1 [Example-17, 6-Furan-3-yl-4,7-dihydro-1-thia-4,5-diaza-cyclopenta[a]pentalene]
< 100	COc1ccc(-c2n[nH]c3c2Cc2sc(-c4cnc(N)nc4)cc2-3)cc1 [Example-79, 5-[6-(4-Methoxy-phenyl)-4,7-dihydro-1-thia-4,5-diaza-cyclopenta[a]pentalen-2-yl]-pyrimidin-2-ylamine]
100 to 499	c1cc2c(s1)Cc1c(-c3ccc(N4CCCC4)cc3)n[nH]c1-2 [Example-84, 6-(4-Pyrrolidin-1-yl-phenyl)-4,7-dihydro-1-thia-4,5-diaza-cyclopenta[a]pentalene]
100 to 499	c1cncc(-c2n[nH]c3c2Cc2sccc2-3)c1 [Example-16, 6-Pyridin-3-yl-4,7-dihydro-1-thia-4,5-diaza-cyclopenta[a]pentalene]
< 100	COc1ccc(-c2n[nH]c3c2Cc2sc(Br)cc2-3)cc1 [Example-34, 2-Bromo-6-(4-methoxy-phenyl)-4,7-dihydro-1-thia-4,5-diaza-cyclopenta[a]pentalene]
< 100	COc1ccc(-c2n[nH]c3c2Cc2sc(-c4cccc(N)c4)cc2-3)cc1 [Example-86, 3-[6-(4-Methoxy-phenyl)-4,7-dihydro-1-thia-4,5-diaza-cyclopenta[a]pentalen-2-yl]-phenylamine]
100 to 499	O=[N+]([O-])c1ccc(-c2n[nH]c3c2Cc2sccc2-3)cc1 [Example-5, 6-(4-Nitro-phenyl)-4,7-dihydro-1-thia-4,5-diaza-cyclopenta[a]pentalene]
< 100	COc1ccc(-c2n[nH]c3c2Cc2sc(-c4ccc(OC)c(OC)c4)cc2-3)cc1 [Example-74, 2-(3,4-Dimethoxy-phenyl)-6-(4-methoxy-phenyl)-4,7-dihydro-1-thia-4,5-diaza-cyclopenta[a]pentalene]
< 100	Oc1ccc(-c2ccc(-c3n[nH]c4c3Cc3sccc3-4)cc2)cc1 [Example-11, 4′-(4,7-Dihydro-1-thia-4,5-diaza-cyclopenta[a]pentalen-6-yl)-biphenyl-4-ol]
< 100	Oc1ccc(-c2n[nH]c3c2Cc2sccc2-3)cc1 [Example-93, 4-(4,7-Dihydro-1-thia-4,5-diaza-cyclopenta[a]pentalen-6-yl)-phenol]
< 100	Nc1ccc(-c2cc3c(s2)Cc2c(-c4ccc(N5CCOCC5)cc4)n[nH]c2-3)cn1 [Example-88, 5-[6-(4-Morpholin-4-yl-phenyl)-4,7-dihydro-1-thia-4,5-diaza-cyclopenta[a]pentalen-2-yl]-pyridin-2-Ylamine hydrochloride]
100 to 499	Brc1ccc(-c2n[nH]c3c2Cc2sccc2-3)cn1 [Example-64, 6-(6-Bromo-pyridin-3-yl)-4,7-dihydro-1-thia-4,5-diaza-cyclopenta[a]pentalene]
< 100	COc1ccc(-c2n[nH]c3c2Cc2sc(-c4ccc(N5CCN(C)CC5)nc4)cc2-3)cc1 [Example-81, 6-(4-Methoxy-phenyl)-2-[6-(4-methyl-piperazin-1-yl)-pyridin-3-yl]-4,7-dihydro-1-thia-4,5-diaza-cyclopenta[a]pentalene]
100 to 499	Clc1cccc(Nc2n[nH]c3c2Cc2sccc2-3)c1Cl [Example-54, (2,3-Dichloro-phenyl)-(4,7-dihydro-1-thia-4,5-diaza-cyclopenta[a]pentalen-6-yl)-amine]
< 100	Nc1ccc(-c2n[nH]c3c2Cc2sccc2-3)cn1 [Example-66, 5-(4,7-Dihydro-1-thia-4,5-diaza-cyclopenta[a]pentalen-6-yl)-pyridin-2-ylamine hydrochloride]
100 to 499	[O-][n+]1ccc(-c2n[nH]c3c2Cc2sccc2-3)cc1 [Example-61, 6-(1-Oxy-pyridin-4-yl)-4,7-dihydro-1-thia-4,5-diaza-cyclopenta[a]pentalene]

IC50 [nM]	Compound
> 1000	COc1ccc(Nc2n[nH]c3c2Cc2sccc2-3)cc1 [Example-23, (4,7-Dihydro-1-thia-4,5-diaza-cyclopenta[a]pentalen-6-yl)-(4-methoxy-phenyl)-amine]
< 100	CN1CCN(c2ccc(-c3n[nH]c4c3Cc3sccc3-4)cc2)CC1 [Example-80, 6-[4-(4-Methyl-piperazin-1-yl)-phenyl]-4,7-dihydro-1-thia-4,5-diaza-cyclopenta[a]pentalene]
< 100	N#Cc1ccc(-c2ccc(-c3n[nH]c4c3Cc3sccc3-4)cc2)cc1 [Example-15, 4′-(4,7-Dihydro-1-thia-4,5-diaza-cyclopenta[a]pentalen-6-yl)-biphenyl-4-carbonitrile]
< 100	Clc1cccc(-c2n[nH]c3c2Cc2sccc2-3)c1 [Example-39, 6-(3-Chloro-phenyl)-4,7-dihydro-1-thia-4,5-diaza-cyclopenta[a]pentalene]
500 to 1000	O=C1c2sccc2-c2[nH]nc(-c3ccc(Br)nc3)c21 [Example-68, 6-(6-Bromo-pyridin-3-yl)-4H-1-thia-4,5-diaza-cyclopenta[a]pentalen-7-one]
< 100	COc1ccc(-c2n[nH]c3c2Cc2sc(-c4cncc(N)c4)cc2-3)cc1 [Example-91, 5-[6-(4-Methoxy-phenyl)-4,7-dihydro-1-thia-4,5-diaza-cyclopenta[a]pentalen-2-yl]-pyridin-3-ylamine hydrochloride]
100 to 499	COc1cccc(-c2n[nH]c3c2Cc2sccc2-3)c1 [Example-3, 6-(3-Methoxy-phenyl)-4,7-dihydro-1-thia-4,5-diaza-cyclopenta[a]pentalene]
100 to 499	Clc1ccc(Nc2n[nH]c3c2Cc2sccc2-3)cc1 [Example-32, (4-Chloro-phenyl)-(4,7-dihydro-1-thia-4,5-diaza-cyclopenta[a]pentalen-6-yl)-amine]
100 to 499	Brc1cccc(Nc2n[nH]c3c2Cc2sccc2-3)c1 [Example-36, (3-Bromo-phenyl)-(4,7-dihydro-1-thia-4,5-diaza-cyclopenta[a]pentalen-6-yl)-amine]
100 to 499	FC(F)(F)c1ccc(Nc2n[nH]c3c2Cc2sccc2-3)cc1 [Example-35, (4,7-Dihydro-1-thia-4,5-diaza-cyclopenta[a]pentalen-6-yl)-(4-trifluoromethyl-phenyl)-amine]
< 100	COc1ccccc1-c1n[nH]c2c1Cc1sccc1-2 [Example-51, 6-(2-Methoxy-phenyl)-4,7-dihydro-1-thia-4,5-diaza-cyclopenta[a]pentalene]
< 100	COc1ccc(-c2cc3c(s2)Cc2c(-c4ccc(OC)cc4)n[nH]c2-3)cc1 [Example-73, 2,6-Bis-(4-methoxy-phenyl)-4,7-dihydro-1-thia-4,5-diaza-cyclopenta[a]pentalene]
100 to 499	Clc1cc(Cl)cc(-c2n[nH]c3c2Cc2sccc2-3)c1 [Example-57, 6-(3,5-Dichloro-phenyl)-4,7-dihydro-1-thia-4,5-diaza-cyclopenta[a]pentalene]
100 to 499	O=S(=O)(c1ccc(Nc2n[nH]c3c2Cc2sccc2-3)cc1)N1CCCCC1 [Example-55, (4,7-Dihydro-1-thia-4,5-diaza-cyclopenta[a]pentalen-6-yl)-[4-(piperidine-1-sulfonyl)-phenyl]-amine]
> 1000	[O-][n+]1cccc(-c2n[nH]c3c2Cc2sccc2-3)c1 [Example-28, 6-(1-Oxy-pyridin-3-yl)-4,7-dihydro-1-thia-4,5-diaza-cyclopenta[a]pentalene]
100 to 499	Nc1cccc(-c2n[nH]c3c2Cc2sccc2-3)c1 [Example-59, 3-(4,7-Dihydro-1-thia-4,5-diaza-cyclopenta[a]pentalen-6-yl)-phenylamine hydrochloride]
< 100	Nc1ccc(-c2cc3c(s2)Cc2c(-c4ccc(O)cc4)n[nH]c2-3)cn1 [Example-92, 4-[2-(6-Amino-pyridin-3-yl)-4,7-dihydro-1-thia-4,5-diaza-cyclopenta[a]pentalen-6-yl]-phenol]
< 100	COc1ccc(-c2n[nH]c3c2Cc2sc(-c4ccc(F)c(F)c4)cc2-3)cc1 [Example-72, 2-(3,4-Difluoro-phenyl)-6-(4-methoxy-phenyl)-4,7-dihydro-1-thia-4,5-diaza-cyclopenta[a]pentalene]

Compound	IC50 [nM]
Brc1cc2c(s1)Cc1c(-c3ccccc3)n[nH]c1-2 [Example-27]	< 100
6-(2-Fluoro-phenyl)-4,7-dihydro-1-thia-4,5-diaza-cyclopenta[a]pentalene [Example-41]	< 100
6-(3-Fluoro-phenyl)-4,7-dihydro-1-thia-4,5-diaza-cyclopenta[a]pentalene [Example-38]	100 to 499
6-[4-(4-Methyl-piperazin-1-yl)-phenyl]-2-pyridin-3-yl-4,7-dihydro-1-thia-4,5-diaza-cyclopenta[a]pentalene hydrochloride [Example-90]	< 100
